Laboratory results as given in US20250241879A1, “CAPSAICIN SEQUENTIAL DOSING METHOD FOR TREATMENT OF KNEE JOINT PAIN” (priority 2018, published 2025).

Test system: human patients with bilateral knee osteoarthritis
Assay: Procedure pain (NPRS) due to intraarticular trans-capsaicin, shortened cooling protocol, Breg pad vs Elasto-Gel wrap (Example 9)
Format: in vivo
Conditions: four patients (Example 9), 1 mg intraarticular
Description: Human patients experiencing osteoarthritic knee joint pain were subjected to two different protocols for intraarticular administration of trans-capsaicin. Temporary pain expected due to administration of capsaicin was analyzed, along with the intraarticular temperature of the knee joint and the temperature of the patient's skin in the area to be cooled.
(§1) One of the protocols utilized a Breg Knee WrapOn Polar Pad (as illustrated in FIG. 1) that utilizes circulating ice-water to achieve cooling, where the pad is placed on skin surrounding the knee in order to cool the knee joint. The other protocol utilized an Elasto-Gel All Purpose Therapy Wrap measuring 6 inches by 24 inches in size to cool the knee joint. The Elasto-Gel All Purpose Therapy Wrap was removed from a freezer (approximately 0° F.) just prior to use. A temperature probe was placed into the intraarticular space of the patient's knee joint to measure intraarticular temperature of the knee joint. A temperature probe was also placed on the skin in the area to be cooled in order to measure skin temperature in the area to be cooled. […]
as §1, with “by 24 inches, whereby the wrap is placed around the knee joint in order” for “by 24 inches in size”, “joint in order to cool” for “inches in size to cool”, “knee joint. At the discretion of the physician performing the procedure, in order to reduce discomfort for the patient, the protocol authorized the physician to instill a volume of 1-2 cc of 2% w/w lidocaine (without epinephrine) into the skin and subcutaneous tissue of the knee at the site of intra-articular probe insertion. A temperature” for “knee joint. A temperature”
Patients receiving cooling of the knee joint using the Elasto-Gel All Purpose Therapy Wrap were subjected to the following procedure: • Placement of intraarticular temperature probe and skin temperature probe. At the discretion of the physician performing the procedure, in order to reduce discomfort for the patient, the protocol authorized the physician to instill a volume of 1-2 cc of 2% w/w lidocaine (without epinephrine) into the skin and subcutaneous tissue of the knee at the site of intra-articular probe insertion. • Cooling using the designated technique was performed for 30 minutes (+/−2 minutes). • Cooling apparatus was removed from the patient's knee. • Intraarticular injection of lidocaine 2% w/w (without epinephrine) 15 mL solution into the patient's knee joint. • Intraarticular injection of the investigational medicinal product (IMP) was performed to deliver trans-capsaicin in the amount of 1 mg. The trans-capsaicin was injected, using the same needle as the lidocaine 2% w/w (without epinephrine), 3 minutes after the intra-articular injection of lidocaine 2% w/w (without epinephrine). The IMP was provided as a pre-filled syringe containing 2 mL of fluid containing trans-capsaicin at a concentration of 0.5 mg/mL. • Knee joint was flexed and extended five times over 1 minute to ensure appropriate distribution of IMP. • The temperature probe was removed approximately 30 minutes after removal of the cooling apparatus.
Pain due to injection of trans-capsaicin was assessed on a Numerical Pain Rating scale (0-10) for 75 minutes after injection of trans-capsaicin. A verbal NPRS was used to assess procedure pain during the study. […]

COc1cc(CNC(=O)CCCCC=CC(C)C)ccc1O [trans-capsaicin, N-[(4-hydroxy-3-methoxyphenyl)methyl]-8-methylnon-6-enamide]
Knee Pain (NPRS) (Ice-Gel Pack (Elasto-Gel wrap), 30 min): 0.0 (+/−0.0) | Knee Pain (NPRS) (Ice-Gel Pack (Elasto-Gel wrap), 40 min): 0.0 (+/−0.0) | Knee Pain (NPRS) (Ice-Gel Pack (Elasto-Gel wrap), 50 min): 1.5 (+/−2.4) | Knee Pain (NPRS) (Ice-Gel Pack (Elasto-Gel wrap), 60 min): 2.8 (+/−3.1) | Knee Pain (NPRS) (Ice-Gel Pack (Elasto-Gel wrap), 70 min): 1.0 (+/−0.8) | Knee Pain (NPRS) (Ice-Gel Pack (Elasto-Gel wrap), 80 min): 1.8 (+/−2.9) | Knee Pain (NPRS) (Ice-Gel Pack (Elasto-Gel wrap), 90 min): 2.5 (+/−2.9) | Knee Pain (NPRS) (Ice-Gel Pack (Elasto-Gel wrap), 100 min): 1.8 (+/−2.9) | Knee Pain (NPRS) (Ice-Gel Pack (Elasto-Gel wrap), 110 min): 0.8 (+/−1.5) | Knee Pain (NPRS) (Ice-Gel Pack (Elasto-Gel wrap), Baseline): 0.3 (+/−0.5) | Knee Pain (NPRS) (Standard Cooling Device (Breg pad), 30 min): 0.0 (+/−0.0) | Knee Pain (NPRS) (Standard Cooling Device (Breg pad), 40 min): 0.5 (+/−1.0) | Knee Pain (NPRS) (Standard Cooling Device (Breg pad), 50 min): 3.8 (+/−2.9) | Knee Pain (NPRS) (Standard Cooling Device (Breg pad), 60 min): 1.8 (+/−2.4) | Knee Pain (NPRS) (Standard Cooling Device (Breg pad), 70 min): 1.0 (+/−2.0) | Knee Pain (NPRS) (Standard Cooling Device (Breg pad), 80 min): 2.0 (+/−4.0) | Knee Pain (NPRS) (Standard Cooling Device (Breg pad), 90 min): 1.5 (+/−2.4) | Knee Pain (NPRS) (Standard Cooling Device (Breg pad), 100 min): 0.5 (+/−1.0) | Knee Pain (NPRS) (Standard Cooling Device (Breg pad), 110 min): 2.0 (+/−4.0) | Knee Pain (NPRS) (Standard Cooling Device (Breg pad), Baseline): 0.0 (+/−0.0)
